Earlier results on one compound are cited in patent US11357858B2, “Pharmaceutical compositions for the treatment of postoperative pain” (FIDIA FARMACEUTICI S.P.A., priority 2018, dated 2022).

SMILES strings stand for the structures. Structures can show the parent of a compound that is named as a salt.

The conditions of the series: in vivo.

Turning to `CCCN1CCCC[C@H]1C(=O)Nc1c(C)cccc1C` [ropivacaine HCl], the “maximum dose which can be administered without the onset of side effects” value is “about 2.5 mg/kg”.
